Experimental data from PubChem BioAssay (NCI).
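The compound was tested at five concentrations on cells cultured in 96-well plates, with a 48-hour exposure period. GI50: concentration for 50% inhibition of growth. TGI denotes the concentration required for complete inhibition of growth.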

Tests used:
Experiment in all cases: inhibition of tumour cell growth, NCI panel, 48 h
[1] = system: HS 578T breast
[2] = system: RXF 393 renal
[3] = system: EKVX NSCLC
[4] = system: IGROV1 ovarian
[5] = system: T-47D breast
[6] = system: MDA-MB-231 breast
[7] = system: HT29 colon
[8] = system: NCI-H23 lung
[9] = system: LOX IMVI melanoma
[10] = system: SN12C renal
[11] = system: SNB-19 CNS
[12] = system: SK-MEL-2 melanoma
[13] = system: NCI-H460 lung
[14] = system: M14 melanoma
[15] = system: UACC-62 melanoma
[16] = system: PC-3 prostate
[17] = system: 786-0 renal
[18] = system: SF-295 CNS
[19] = system: DU-145 prostate
[20] = system: A498 renal
[21] = system: MCF7 breast
[22] = system: OVCAR-3 ovarian
[23] = system: A549 NSCLC
[24] = system: HCT-15 colon
[25] = system: CAKI-1 renal
[26] = system: UACC-257 melanoma
[27] = system: COLO 205 colon
[28] = system: SW-620 colon
[29] = system: CCRF-CEM leukemia
[30] = system: HOP-62 NSCLC
[31] = system: NCI-H226 lung
[32] = system: OVCAR-4 ovarian
[33] = system: HCC-2998 colon
[34] = system: RPMI-8226 leukemia
[35] = system: SF-539 CNS
[36] = system: BT-549 breast
[37] = system: HOP-92 NSCLC
[38] = system: MALME-3M melanoma
[39] = system: SF-268 CNS
[40] = system: KM12 colon
[41] = system: SNB-75 CNS
[42] = system: SK-MEL-28 melanoma
[43] = system: ACHN renal
[44] = system: UO-31 renal
[45] = system: NCI/ADR-RES ovarian
[46] = system: OVCAR-8 ovarian
[47] = system: MOLT-4 leukemia
[48] = system: TK-10 renal
[49] = system: OVCAR-5 ovarian
[50] = system: HL-60(TB) leukemia

For `COc1ccc2c(c1)oc1c(C)c3c(c(C)c12)C(=O)N(N)C3=O`, the GI50 [1] was 32.6 µM, the TGI [1] was > 100 µM and the GI50 [2] was 8.21 µM. The TGI [2] was > 100 µM, the GI50 [3] was > 100 µM and the TGI [3] was > 100 µM. For the same compound, the GI50 [4] was > 100 µM, the TGI [4] was > 100 µM and the GI50 [5] was > 100 µM. The TGI [5] was > 100 µM, the GI50 [6] was 61.9 µM and the TGI [6] was > 100 µM. The GI50 [7] was > 100 µM, the TGI [7] was > 100 µM and the GI50 [8] was > 100 µM. The TGI [8] was > 100 µM, the GI50 [9] was > 100 µM and the TGI [9] was > 100 µM. The GI50 [10] was > 100 µM, the TGI [10] was > 100 µM and the GI50 [11] was > 100 µM. The TGI [11] was > 100 µM, the GI50 [12] was > 100 µM and the TGI [12] was > 100 µM. For the same compound, the GI50 [13] was 3.49 µM, the TGI [13] was > 100 µM and the GI50 [14] was > 100 µM. For the same compound, the TGI [14] was > 100 µM, the GI50 [15] was > 100 µM and the TGI [15] was > 100 µM. The GI50 [16] was > 100 µM, the TGI [16] was > 100 µM and the GI50 [17] was 22.7 µM. For the same compound, the TGI [17] was > 100 µM, the GI50 [18] was > 100 µM and the TGI [18] was > 100 µM. The GI50 [19] was > 100 µM, the TGI [19] was > 100 µM and the GI50 [20] was 4.25 µM. For the same compound, the TGI [20] was > 100 µM, the GI50 [21] was 50.7 µM and the TGI [21] was > 100 µM. For the same compound, the GI50 [22] was > 100 µM, the TGI [22] was > 100 µM and the GI50 [23] was > 100 µM. For the same compound, the TGI [23] was > 100 µM, the GI50 [24] was > 100 µM and the TGI [24] was > 100 µM. The GI50 [25] was > 100 µM, the TGI [25] was > 100 µM and the GI50 [26] was > 100 µM. The TGI [26] was > 100 µM, the GI50 [27] was > 100 µM and the TGI [27] was > 100 µM. The GI50 [28] was > 100 µM, the TGI [28] was > 100 µM and the GI50 [29] was > 100 µM. The TGI [29] was > 100 µM, the GI50 [30] was 25 µM and the TGI [30] was > 100 µM. The GI50 [31] was 40.4 µM, the TGI [31] was > 100 µM and the GI50 [32] was > 100 µM. The TGI [32] was > 100 µM, the GI50 [33] was > 100 µM and the TGI [33] was > 100 µM. The GI50 [34] was > 100 µM, the TGI [34] was > 100 µM and the GI50 [35] was 78.8 µM. For the same compound, the TGI [35] was > 100 µM, the GI50 [36] was 5.2 µM and the TGI [36] was > 100 µM. The GI50 [37] was > 100 µM, the TGI [37] was > 100 µM and the GI50 [38] was > 100 µM. For the same compound, the TGI [38] was > 100 µM, the GI50 [39] was 21.9 µM and the TGI [39] was > 100 µM. The GI50 [40] was > 100 µM, the TGI [40] was > 100 µM and the GI50 [41] was 4.37 µM. For the same compound, the TGI [41] was > 100 µM, the GI50 [42] was > 100 µM and the TGI [42] was > 100 µM. The GI50 [43] was 7.53 µM, the TGI [43] was > 100 µM and the GI50 [44] was > 100 µM. For the same compound, the TGI [44] was > 100 µM, the GI50 [45] was > 100 µM and the TGI [45] was > 100 µM. For the same compound, the GI50 [46] was 7.89 µM, the TGI [46] was > 100 µM and the GI50 [47] was 23.4 µM. For the same compound, the TGI [47] was > 100 µM, the GI50 [48] was > 100 µM and the TGI [48] was > 100 µM. For the same compound, the GI50 [49] was > 100 µM, the TGI [49] was > 100 µM and the GI50 [50] was > 100 µM. The TGI [50] was > 100 µM.
